Data published in patent US20260297042A1, “BIARYLAMIDE DERIVATIVES AND THEIR USE AS PKMYT1 INHIBITORS” (CANCER RESEARCH TECHNOLOGY LIMITED, priority 2023, published 2026).

What was measured:
Human PKMYT1 = molecular target: T1, Human PKMYT1 (Homo sapiens, UniProt Q99640); experiment: PKMYT1 biochemical ADP-Glo enzymatic assay; conditions: ADP-Glo
T1 construct: Human PKMYT1 75-362 was cloned as a TEV cleavable 6xHis fusion; 6xHis (TEV cleavable) (cleaved yes); made in house; host or cells: bacterial cells
T1 sequence (Q99640 75-362): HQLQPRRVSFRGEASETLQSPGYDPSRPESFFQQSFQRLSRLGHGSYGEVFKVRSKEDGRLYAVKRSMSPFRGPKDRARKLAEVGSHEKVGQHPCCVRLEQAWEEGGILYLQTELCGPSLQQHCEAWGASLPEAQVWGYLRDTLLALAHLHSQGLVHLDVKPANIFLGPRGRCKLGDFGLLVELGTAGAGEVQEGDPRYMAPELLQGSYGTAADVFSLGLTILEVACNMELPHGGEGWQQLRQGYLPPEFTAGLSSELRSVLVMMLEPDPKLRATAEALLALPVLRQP
Procedure, shortened: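 Purified untagged human PKMYT1 75-362 at 15 nM final was tested in HEPES pH 7.5 with MgCl2, EGTA, Brij-35 and 1% DMSO. Intrinsic ATPase activity was measured with 500 uM ATP over 60 min at 26° C. ADP-Glo luminescence was read and IC50 fitted from 10-point, 3-fold dilution curves.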

WEE1 = molecular target: T2, WEE1 (Homo sapiens, UniProt P30291); experiment: Selectivity versus WEE1 assay (ADP-Glo enzymatic assay); assay type: biochemical; conditions: for IC50: ADP-Glo; for PKMYT1 vs. WEE1 selectivity: fold difference in selectivity for PKMYT1 over WEE1
T2 construct: purchased Thermo Fisher PR7373A
Procedure, shortened: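 WEE1 at 15 nM final in 50 mM HEPES pH 7.5, 10 mM MgCl2, 1 mM EGTA, 0.01% Brij-35, 1% DMSO; reaction started with 30 µM ATP, 60 min at 26 °C. ADP-Glo luminescence; IC50 from dose-response curves, replicates within 3-fold and r2 >0.9.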

OVCAR 3 cells = experiment: Cancer cell line proliferation assay, ATP-based cell viability (Cell Titre Glow), OVCAR 3 (CCNE1-amplified); conditions: KYSE30 (normal CCNE1) GI50 vs. OVCAR 3 (CCNE1-amplified) GI50
Procedure, shortened: (§1)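 Luminescence read-out from an ATP-based viability reagent served as the proliferation measure. Values are GI50 estimates, i.e. concentrations producing 50% inhibition of cell growth.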

KYSE-30 cells = experiment: Cancer cell line proliferation assay, ATP-based cell viability (Cell Titre Glow), KYSE-30 (normal CCNE1); conditions: Homo sapiens, KYSE-30 cells (normal CCNE1), concentration that achieves 50% cell growth proliferation inhibition, read-out: KYSE30 Gl50
Procedure, shortened: as §1

[1] = molecular target: T3, Cellular PKMYT1 Biomarker CDK1 pT14 (Homo sapiens, UniProt Q99640); experiment: Inhibition of cellular PKMYT1 biomarker CDK1 pT14 in OVCAR 3 cells (immunoblot); assay type: cell-based; conditions: 20 hours incubation
T3 construct: read-out CDK1 phospho-T14 immunoblot
T3 sequence (Q99640 1-499): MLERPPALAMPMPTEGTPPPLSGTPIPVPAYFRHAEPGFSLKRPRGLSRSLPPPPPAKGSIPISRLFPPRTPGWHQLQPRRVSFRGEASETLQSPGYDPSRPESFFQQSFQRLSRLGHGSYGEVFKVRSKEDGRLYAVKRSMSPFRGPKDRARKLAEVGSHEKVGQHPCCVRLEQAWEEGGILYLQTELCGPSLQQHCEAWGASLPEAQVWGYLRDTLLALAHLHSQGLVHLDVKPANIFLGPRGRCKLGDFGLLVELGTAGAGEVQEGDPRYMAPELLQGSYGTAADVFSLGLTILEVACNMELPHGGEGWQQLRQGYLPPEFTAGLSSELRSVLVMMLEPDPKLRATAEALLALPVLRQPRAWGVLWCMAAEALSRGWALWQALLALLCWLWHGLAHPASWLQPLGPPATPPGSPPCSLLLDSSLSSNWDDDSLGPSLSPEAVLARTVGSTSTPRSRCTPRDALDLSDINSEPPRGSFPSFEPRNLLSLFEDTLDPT
Procedure, shortened: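 Confluent OVCAR 3 cells treated with a compound concentration range for 20 h at 37 °C. Lysates analysed by automated capillary immunoblot for CDK1 phospho-T14, with vinculin, fluorescence detection; IC50 by regression.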

[2] = 15 nM PKMYT1 kinase domain, 500 µM ATP, 60 minutes at 26° C., banded
[3] = 15 nM WEE1, 60 minutes at 26° C., banded
[4] = banded, ">N" = at least in this band but could be higher
[5] = PKMYT1 kinase domain 15 nM, banded values

T2 sequence (P30291 whole entry): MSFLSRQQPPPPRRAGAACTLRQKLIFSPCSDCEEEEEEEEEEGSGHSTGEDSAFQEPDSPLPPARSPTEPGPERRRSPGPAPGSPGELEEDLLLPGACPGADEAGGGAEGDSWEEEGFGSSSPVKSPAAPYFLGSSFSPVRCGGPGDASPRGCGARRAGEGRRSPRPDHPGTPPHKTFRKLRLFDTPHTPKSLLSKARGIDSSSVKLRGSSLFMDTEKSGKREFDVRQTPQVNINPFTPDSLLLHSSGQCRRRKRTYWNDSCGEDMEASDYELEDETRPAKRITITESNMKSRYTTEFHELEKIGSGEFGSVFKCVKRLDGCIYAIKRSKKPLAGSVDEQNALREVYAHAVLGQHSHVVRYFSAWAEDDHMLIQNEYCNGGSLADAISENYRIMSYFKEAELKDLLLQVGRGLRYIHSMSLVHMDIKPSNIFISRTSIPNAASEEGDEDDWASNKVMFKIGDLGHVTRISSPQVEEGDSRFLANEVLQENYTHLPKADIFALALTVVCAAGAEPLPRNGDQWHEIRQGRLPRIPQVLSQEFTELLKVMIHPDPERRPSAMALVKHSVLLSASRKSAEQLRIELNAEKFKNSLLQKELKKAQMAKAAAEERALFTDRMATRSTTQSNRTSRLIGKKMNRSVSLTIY

Row | SMILES | IC50 (Human PKMYT1; [2]) [nM] | IC50 (WEE1; [3]) [nM] | PKMYT1 vs. WEE1 selectivity (WEE1; [4]) | Selectivity ratio KYSE30 Gl50 vs. OVCAR3 Gl50 (OVCAR 3 cells) | GI50 (KYSE-30 cells) [nM] | IC50 [1] [nM] | IC50 (Human PKMYT1; [5]) [nM] | IC50 (WEE1; WEE1 15 nM, banded values) [nM] | PKMYT1 vs. WEE1 selectivity (WEE1; banded)
1 | Cc1ccc(O)c(C)c1NC(=O)c1cnc(Nc2cccc(-c3ccc(C(F)(F)F)cc3)n2)s1 [BAA-316, N-(3-hydroxy-2,6-dimethylphenyl)-2-((6-(4-(trifluoromethyl)phenyl)pyridin-2-yl)amino)thiazole-5-carboxamide] | 50 to 1000 | > 11000 | Y (1000-5000 fold) | Y (>20 fold) | 500 to 5000 | 100 to 1000 | – | – | –
2 | Cc1ccc(O)c(C)c1NC(=O)c1cnc(Nc2cc(C(F)(F)F)nc(N3CCOCC3)n2)s1 [BAA-326, N-(3-hydroxy-2,6-dimethylphenyl)-2-((2-morpholino-6-(trifluoromethyl)pyrimidin-4-yl)amino)thiazole-5-carboxamide] | 50 to 1000 | > 11000 | X (100-<1000 fold) | Y (>20 fold) | 500 to 5000 | < 100 | – | – | –
3 | Cc1ccc(O)c(C)c1NC(=O)c1cnc(Nc2nn(CC(=O)N3CCCC3)cc2Cl)s1 [BAA-546, 2-((4-chloro-1-(2-oxo-2-(pyrrolidin-1-yl)ethyl)-1H-pyrazol-3-yl)amino)-N-(3-hydroxy-2,6-dimethylphenyl)thiazole-5-carboxamide] | – | – | – | Y (>20 fold) | > 5000 | < 100 | < 50 | 1000 to 11000 | X (100-<1000 fold)
4 | Cc1ccc(O)c(C)c1NC(=O)c1cnc(Nc2ccc3ccncc3n2)s1 [BAA-597, 2-((1,7-naphthyridin-2-yl)amino)-N-(3-hydroxy-2,6-dimethylphenyl)thiazole-5-carboxamide] | – | – | – | Y (>20 fold) | 500 to 5000 | 100 to 1000 | < 50 | > 11000 | X (100-<1000 fold)
5 | Cc1cc(Nc2ncc(C(=O)Nc3c(C)ccc(O)c3C)s2)nc(N2CCC(F)(F)CC2)n1 [BAA-313, 2-((2-(4,4-difluoropiperidin-1-yl)-6-methylpyrimidin-4-yl)amino)-N-(3-hydroxy-2,6-dimethylphenyl)thiazole-5-carboxamide] | 50 to 1000 | > 11000 | X (100-<1000 fold) | Y (>20 fold) | 500 to 5000 | < 100 | – | – | –
6 | Cc1ccc(NC(=O)C(C)(C)O)nc1Nc1ncc(C(=O)Nc2c(C)ccc(O)c2C)s1.Cl [BAA-342, N-(3-Hydroxy-2,6-dimethylphenyl)-2-((6-(2-hydroxy-2-methylpropanamido)-3-methylpyridin-2-yl)amino)thiazole-5-carboxamide hydrochloride] | < 50 | > 11000 | X (100-<1000 fold) | Y (>20 fold) | > 5000 | < 100 | – | – | –
7 | CCN(C(=O)Cn1cc(C)c(Nc2ncc(C(=O)Nc3c(C)ccc(O)c3C)s2)n1)C1CC1 [BAA-551, 2-((1-(2-(cyclopropyl(ethyl)amino)-2-oxoethyl)-4-methyl-1H-pyrazol-3-yl)amino)-N-(3-hydroxy-2,6-dimethylphenyl)thiazole-5-carboxamide] | – | – | – | Y (>20 fold) | 500 to 5000 | < 100 | < 50 | 1000 to 11000 | X (100-<1000 fold)
8 | Cc1cn(C2COC2)nc1Nc1ncc(C(=O)Nc2c(C)ccc(O)c2C)s1 [BAA-269, N-(3-hydroxy-2,6-dimethylphenyl)-2-((4-methyl-1-(oxetan-3-yl)-1H-pyrazol-3-yl)amino) thiazole-5-carboxamide] | < 50 | 50 to 1000 | W (10-<100 fold) | Y (>20 fold) | 500 to 5000 | < 100 | – | – | –
9 | Cc1cn(CC2CCOC2)nc1Nc1ncc(C(=O)Nc2c(C)ccc(O)c2C)s1 (stereo not drawn) [BAA-543] | – | – | – | Y (>20 fold) | > 5000 | < 100 | < 50 | 1000 to 11000 | W (10-<100 fold)
10 | CCc1cn(CCF)nc1Nc1ncc(C(=O)Nc2c(C)ccc(O)c2C)s1 [BAA-588, 2-((4-ethyl-1-(2-fluoroethyl)-1H-pyrazol-3-yl)amino)-N-(3-hydroxy-2,6-dimethylphenyl)thiazole-5-carboxamide] | – | – | – | Y (>20 fold) | 500 to 5000 | < 100 | < 50 | 1000 to 11000 | X (100-<1000 fold)
11 | CCN(C(=O)C(CO)n1cc(C)c(Nc2ncc(C(=O)Nc3c(C)ccc(O)c3C)s2)n1)C1CC1 (stereo not drawn) [BAA-592, 2-((1-(1-(cyclopropyl(ethyl)amino)-3-hydroxy-1-oxopropan-2-yl)-4-methyl-1H-pyrazol-3-yl)amino)-N-(3-hydroxy-2,6-dimethylphenyl)thiazole-5-carboxamide] | – | – | – | Y (>20 fold) | > 5000 | < 100 | < 50 | 1000 to 11000 | X (100-<1000 fold)
12 | COCC1(N(C)C(=O)Cn2cc(C)c(Nc3ncc(C(=O)Nc4c(C)ccc(O)c4C)s3)n2)CC1 [BAA-607] | – | – | – | Y (>20 fold) | > 5000 | < 100 | < 50 | 1000 to 11000 | X (100-<1000 fold)
13 | Cc1ccc(O)c(C)c1NC(=O)c1cnc(Nc2cccc(-c3cnn(C)c3)n2)s1 [BAA-390, N-(3-hydroxy-2,6-dimethylphenyl)-2-((6-(1-methyl-1H-pyrazol-4-yl)pyridin-2-yl)amino)thiazole-5-carboxamide] | < 50 | 1000 to 11000 | X (100-<1000 fold) | Y (>20 fold) | 500 to 5000 | < 100 | – | – | –
14 | CCN(CC)C(=O)Cn1cc(Cl)c(Nc2ncc(C(=O)Nc3c(C)ccc(O)c3C)s2)n1 [BAA-560, 2-((4-chloro-1-(2-(diethylamino)-2-oxoethyl)-1H-pyrazol-3-yl)amino)-N-(3-hydroxy-2,6-dimethylphenyl)thiazole-5-carboxamide] | – | – | – | Y (>20 fold) | 500 to 5000 | < 100 | < 50 | 1000 to 11000 | X (100-<1000 fold)
15 | COC[C@H]1CCCN1C(=O)Cn1cc(C)c(Nc2ncc(C(=O)Nc3c(C)ccc(O)c3C)s2)n1 [BAA-599, N-(3-Hydroxy-2,6-dimethyl-phenyl)-2-[[1-[2-[(2R)-2-(methoxymethyl)pyrrolidin-1-yl]-2-oxo-ethyl]-4-methyl-pyrazol-3-yl]amino]thiazole-5-carboxamide] | – | – | – | Y (>20 fold) | > 5000 | 100 to 1000 | < 50 | 1000 to 11000 | X (100-<1000 fold)
16 | Cc1ccc(O)c(C)c1NC(=O)c1cnc(Nc2cc(N3CCN(C)CC3)ncn2)s1 [BAA-581, N-(3-hydroxy-2,6-dimethylphenyl)-2-((6-(4-methylpiperazin-1-yl)pyrimidin-4-yl)amino)thiazole-5-carboxamide] | – | – | – | Y (>20 fold) | > 5000 | < 100 | < 50 | 50 to 1000 | W (10-<100 fold)
